In the supplement of paper PMC12137928 one finds IC50 cell viability data, which are given here for 51 molecules.

SMILES strings stand for the structures. Structures can show the parent of a compound that is named as a salt. A value given as a limit tells only on which side of the number the result lay.

This assay relates to HCT116. The conditions noted are these: 72 h. In a few lines:
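Each well of the 1536-well plates received 250 HCT116 cells, which attached over 5 h. Luminescence was measured with CellTiter-Glo, scaled with vehicle as 0% and positive control as -100%, and pattern-corrected. A four-parameter Hill fit yielded IC50 and maximal efficacy.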

`CO/N=C(\C(=O)N[C@@H]1C(=O)N2C(C(=O)O)=C(CSc3cnns3)CS[C@H]12)c1csc(N)n1` [Cefuzonam hydrochloride]: the IC50 cell viability is above 45.8 µM (ICRF193 0 nM) and above 45.8 µM (ICRF193 200 nM).

As to `CCN(CC)C(=O)Nc1ccc(OCC(O)CNC(C)(C)C)c(C(C)=O)c1` (configuration not stated) [Celiprolol hydrochloride], the IC50 cell viability was above 45.8 µM (ICRF193 0 nM) and above 45.8 µM (ICRF193 200 nM).

Take `CC1=C(C(=O)O)N2C(=O)[C@@H](NC(=O)[C@H](N)c3ccccc3)[C@H]2SC1` [Cephalexin]: the IC50 cell viability is above 45.8 µM (ICRF193 0 nM) and above 45.8 µM (ICRF193 200 nM).

Molecule `O=C(Cc1cccs1)N[C@@H]1C(=O)N2C(C(=O)[O-])=C(C[n+]3ccccc3)CS[C@H]12` [Cephaloridine] showed an IC50 cell viability (ICRF193 0 nM) above 45.8 µM and an IC50 cell viability (ICRF193 200 nM) above 45.8 µM.

Take `CC(=O)OCC1=C(C(=O)O)N2C(=O)[C@@H](NC(=O)Cc3cccs3)[C@H]2SC1` [Cephalothin]: the IC50 cell viability was above 45.8 µM (ICRF193 0 nM) and above 45.8 µM (ICRF193 200 nM).

Take `CC(=O)OCC1=C(C(=O)O)N2C(=O)[C@@H](NC(=O)CSc3ccncc3)[C@H]2SC1` [Cephapirin sodium]: the IC50 cell viability was above 45.8 µM (ICRF193 0 nM) and above 45.8 µM (ICRF193 200 nM).

On to `CCCCCCCCCCCCCCCCOc1nc2ccc(C)cc2c(=O)o1` [Cetilistat], for which the IC50 cell viability by setting is: (ICRF193 0 nM) above 45.8 µM; (ICRF193 200 nM) above 45.8 µM.

On to `NC[C@H]1CC[C@H](C(=O)Oc2ccc(CCC(=O)O)cc2)CC1` [Cetraxate hydrochloride], for which the IC50 cell viability reads like this: (ICRF193 0 nM) above 45.8 µM; (ICRF193 200 nM) above 45.8 µM.

`CC(=O)N[C@H](Cc1ccc2ccccc2c1)C(=O)N[C@H](Cc1ccc(Cl)cc1)C(=O)N[C@H](Cc1cccnc1)C(=O)N[C@@H](CO)C(=O)N[C@@H](Cc1ccc(O)cc1)C(=O)N[C@H](CCCNC(N)=O)C(=O)N[C@@H](CC(C)C)C(=O)N[C@@H](CCCNC(=N)N)C(=O)N1CCC[C@H]1C(=O)N[C@H](C)C(N)=O` [Cetrorelix]: the IC50 cell viability is above 45.8 µM (ICRF193 0 nM) and above 45.8 µM (ICRF193 200 nM).

As for `CC1OC2(CS1)CN1CCC2CC1` (configuration not stated) [Cevimeline hydrochloride], the IC50 cell viability runs as follows: (ICRF193 0 nM) above 45.8 µM; (ICRF193 200 nM) above 45.8 µM.

With `CN(C)CCC(O)(c1ccccc1)c1ccccc1Cl` (configuration not stated) [Chlophedianol], the IC50 cell viability reads like this: (ICRF193 0 nM) above 45.8 µM; (ICRF193 200 nM) above 45.8 µM.

Molecule `O=C(O)CCCc1ccc(N(CCCl)CCCl)cc1` [Chlorambucil] had an IC50 cell viability (ICRF193 0 nM) above 45.8 µM and an IC50 cell viability (ICRF193 200 nM) above 45.8 µM.

As for `CCCCCCCCCCCCCCCC(=O)OC[C@@H](NC(=O)C(Cl)Cl)[C@H](O)c1ccc([N+](=O)[O-])cc1` [Chloramphenicol palmitate], the IC50 cell viability (ICRF193 0 nM) is above 45.8 µM and the IC50 cell viability (ICRF193 200 nM) is above 45.8 µM.

Turning to `O=C(O)CCC(=O)OC[C@@H](NC(=O)C(Cl)Cl)[C@H](O)c1ccc([N+](=O)[O-])cc1` [Chloramphenicol sodium succinate], the IC50 cell viability is, setting by setting: (ICRF193 0 nM) above 45.8 µM; (ICRF193 200 nM) above 45.8 µM.

As to `O=C(N[C@H](CO)[C@H](O)c1ccc([N+](=O)[O-])cc1)C(Cl)Cl` [Chloramphenicol], the IC50 cell viability was above 45.8 µM (ICRF193 0 nM) and above 45.8 µM (ICRF193 200 nM).

Turning to `CN1CCN(C(c2ccccc2)c2ccc(Cl)cc2)CC1` (configuration not stated) [Chlorcyclizine], the IC50 cell viability is, setting by setting: (ICRF193 0 nM) above 45.8 µM; (ICRF193 200 nM) above 45.8 µM.

For `NS(=O)(=O)c1cc2c(cc1Cl)CN(C1CCCCC1)C2=O` [Chlorexolone], the IC50 cell viability (ICRF193 0 nM) is above 45.8 µM and the IC50 cell viability (ICRF193 200 nM) is above 45.8 µM.

As for `CC(=O)O[C@]1(C(C)=O)CC[C@H]2[C@@H]3C=C(Cl)C4=CC(=O)CC[C@]4(C)[C@H]3CC[C@@]21C` [Chlormadinone acetate], the IC50 cell viability (ICRF193 0 nM) is above 45.8 µM and the IC50 cell viability (ICRF193 200 nM) is above 45.8 µM.

For the molecule `CN1C(=O)CCS(=O)(=O)C1c1ccc(Cl)cc1` (configuration not stated) [Chlormezanone], the IC50 cell viability (ICRF193 0 nM) was above 45.8 µM and the IC50 cell viability (ICRF193 200 nM) was above 45.8 µM.

With `CCN(CC)CCOC(=O)c1ccc(N)cc1Cl` [Chloroprocaine HCl], the IC50 cell viability is above 45.8 µM (ICRF193 0 nM) and above 45.8 µM (ICRF193 200 nM).

For `CCN(CC)CCCC(C)Nc1ccnc2cc(Cl)ccc12` (configuration not stated) [Chloroquine], the IC50 cell viability (ICRF193 0 nM) is above 45.8 µM and the IC50 cell viability (ICRF193 200 nM) was above 45.8 µM.

Consider `NS(=O)(=O)c1cc2c(cc1Cl)N=CNS2(=O)=O` [Chlorothiazide], for which the IC50 cell viability (ICRF193 0 nM) is above 45.8 µM and the IC50 cell viability (ICRF193 200 nM) was above 45.8 µM.

As for `NC(=O)OCC(O)COc1ccc(Cl)cc1` (configuration not stated) [Chlorphensin carbamate], the IC50 cell viability was above 45.8 µM (ICRF193 0 nM) and above 45.8 µM (ICRF193 200 nM).

As to `CCCNC(=O)NS(=O)(=O)c1ccc(Cl)cc1` [Chlorpropamide], the IC50 cell viability reads like this: (ICRF193 0 nM) above 45.8 µM; (ICRF193 200 nM) above 45.8 µM.

Take `CN(C)[C@@H]1C(O)=C(C(N)=O)C(=O)[C@@]2(O)C(O)=C3C(=O)c4c(O)ccc(Cl)c4[C@@](C)(O)[C@H]3C[C@@H]12` [Chlortetracycline HCl]: the IC50 cell viability is above 45.8 µM (ICRF193 0 nM) and above 45.8 µM (ICRF193 200 nM).

Regarding `NS(=O)(=O)c1cc(C2(O)NC(=O)c3ccccc32)ccc1Cl` (configuration not stated) [Chlorthalidone], the IC50 cell viability runs as follows: (ICRF193 0 nM) above 45.8 µM; (ICRF193 200 nM) above 45.8 µM.

`CC(C)(Oc1ccc(Cl)cc1)C(=O)OCCCOC(=O)C(C)(C)Oc1ccc(Cl)cc1` [Cholesolvin] had an IC50 cell viability (ICRF193 0 nM) above 45.8 µM and an IC50 cell viability (ICRF193 200 nM) above 45.8 µM.

With `CC(C)CCC[C@@H](C)[C@H]1CC[C@H]2[C@@H]3CC=C4C[C@@H](O)CC[C@]4(C)[C@H]3CC[C@]12C` [Cholesterol], the IC50 cell viability by setting is: (ICRF193 0 nM) above 45.8 µM; (ICRF193 200 nM) above 45.8 µM.

As for `C[C@H](CCC(=O)O)[C@H]1CC[C@H]2[C@@H]3[C@H](O)C[C@@H]4C[C@H](O)CC[C@]4(C)[C@H]3C[C@H](O)[C@]12C` [Cholic Acid], the IC50 cell viability reads like this: (ICRF193 0 nM) above 45.8 µM; (ICRF193 200 nM) above 45.8 µM.

In the case of `C[N+](C)(C)CCO.[Cl-]` [Choline Chloride], the IC50 cell viability is above 45.8 µM (ICRF193 0 nM) and above 45.8 µM (ICRF193 200 nM).

Regarding `CCOC(=O)COc1ccc2c(C)c(CCN(CC)CC)c(=O)oc2c1` [Chromonar hydrochloride], the IC50 cell viability runs as follows: (ICRF193 0 nM) above 45.8 µM; (ICRF193 200 nM) above 45.8 µM.

With `Cc1cc(O)c2c(O)c3c(O)cccc3cc2c1` [Chrysarobin], the IC50 cell viability was above 45.8 µM (ICRF193 0 nM) and above 45.8 µM (ICRF193 200 nM).

For the molecule `c1ccc(C2(c3ccccc3)CC2C2=NCCN2)cc1` (configuration not stated) [Cibenzoline succinate], the IC50 cell viability was above 45.8 µM (ICRF193 0 nM) and above 45.8 µM (ICRF193 200 nM).

As to `CC(C)C(=O)OCC(=O)[C@@]12O[C@H](C3CCCCC3)O[C@@H]1C[C@H]1[C@@H]3CCC4=CC(=O)C=C[C@]4(C)[C@H]3[C@@H](O)C[C@@]12C` [Ciclesonide], the IC50 cell viability runs as follows: (ICRF193 0 nM) above 45.8 µM; (ICRF193 200 nM) above 45.8 µM.

In the case of `Nc1ccn(C[C@@H](CO)OCP(=O)(O)O)c(=O)n1` [Cidofovir], the IC50 cell viability reads like this: (ICRF193 0 nM) above 45.8 µM; (ICRF193 200 nM) above 45.8 µM.

As to `CC1(C)C[C@@H]1C(=O)N/C(=C\CCCCSC[C@H](N)C(=O)O)C(=O)O` [Cilastatin], the IC50 cell viability by setting is: (ICRF193 0 nM) above 45.8 µM; (ICRF193 200 nM) above 45.8 µM.

For `CCOC(=O)[C@H](CCc1ccccc1)N[C@H]1CCCN2CCC[C@@H](C(=O)O)N2C1=O` [Cilazapril], the IC50 cell viability runs as follows: (ICRF193 0 nM) above 45.8 µM; (ICRF193 200 nM) above 45.8 µM.

Consider `CC(C)[C@H]1C(=O)N[C@@H](CCCNC(=N)N)C(=O)NCC(=O)N[C@@H](CC(=O)O)C(=O)N[C@H](Cc2ccccc2)C(=O)N1C` [Cilengitide], for which the IC50 cell viability reads like this: (ICRF193 0 nM) above 45.8 µM; (ICRF193 200 nM) above 45.8 µM.

For the molecule `COc1ccc([C@]2(C#N)CC[C@@H](C(=O)O)CC2)cc1OC1CCCC1` [Cilomilast], the IC50 cell viability by setting is: (ICRF193 0 nM) above 45.8 µM; (ICRF193 200 nM) above 45.8 µM.

With `CN/C(=N\CCSCc1nc[nH]c1C)NC#N` [Cimetidine], the IC50 cell viability was above 45.8 µM (ICRF193 0 nM) and above 45.8 µM (ICRF193 200 nM).

Take `COc1ccc(-c2c(Cl)ncn2-c2ccc(S(N)(=O)=O)cc2)cc1F` [Cimicoxib]: the IC50 cell viability runs as follows: (ICRF193 0 nM) above 45.8 µM; (ICRF193 200 nM) above 45.8 µM.

As for `COc1cc(/C=C/C(=O)N2CCN(CC(=O)N3CCCC3)CC2)cc(OC)c1OC` [Cinepazide Maleate], the IC50 cell viability (ICRF193 0 nM) is above 45.8 µM and the IC50 cell viability (ICRF193 200 nM) was above 45.8 µM.

Regarding `CC(C(O)c1ccccc1)N(C)C/C=C/c1ccccc1` (configuration not stated) [Cinnamedrine], the IC50 cell viability reads like this: (ICRF193 0 nM) above 45.8 µM; (ICRF193 200 nM) above 45.8 µM.

In the case of `OC/C=C/c1ccccc1` [Cinnamyl alcohol], the IC50 cell viability (ICRF193 0 nM) is above 45.8 µM and the IC50 cell viability (ICRF193 200 nM) was above 45.8 µM.

Regarding `C(=C\c1ccccc1)/CN1CCN(C(c2ccccc2)c2ccccc2)CC1` [Cinnarizine], the IC50 cell viability was above 45.8 µM (ICRF193 0 nM) and above 45.8 µM (ICRF193 200 nM).

`CCn1nc(C(=O)O)c(=O)c2cc3c(cc21)OCO3` [Cinoxacin]: the IC50 cell viability reads like this: (ICRF193 0 nM) above 45.8 µM; (ICRF193 200 nM) above 45.8 µM.

With `CCOCCOC(=O)/C=C/c1ccc(OC)cc1` [Cinoxate], the IC50 cell viability is, setting by setting: (ICRF193 0 nM) above 45.8 µM; (ICRF193 200 nM) above 45.8 µM.

As to `CC(C)(Oc1ccc(C2CC2(Cl)Cl)cc1)C(=O)O` (configuration not stated) [Ciprofibrate], the IC50 cell viability runs as follows: (ICRF193 0 nM) above 45.8 µM; (ICRF193 200 nM) above 45.8 µM.

Consider `O=C(O)c1cn(C2CC2)c2cc(N3CCNCC3)c(F)cc2c1=O` [Ciprofloxacin], for which the IC50 cell viability by setting is: (ICRF193 0 nM) above 45.8 µM; (ICRF193 200 nM) above 45.8 µM.

`COc1cc(N)c(Cl)cc1C(=O)NC1CCN(CCCOc2ccc(F)cc2)CC1OC` (configuration not stated) [Cisapride]: the IC50 cell viability (ICRF193 0 nM) is above 45.8 µM and the IC50 cell viability (ICRF193 200 nM) was above 45.8 µM.

Consider `CN(C)CCCC1(c2ccc(F)cc2)OCc2cc(C#N)ccc21` (configuration not stated) [Citalopram hydrobromide], for which the IC50 cell viability is, setting by setting: (ICRF193 0 nM) above 45.8 µM; (ICRF193 200 nM) above 45.8 µM.
